Laboratory results reported in US6660742B2, “Compositions and methods of the use thereof achiral analogues of CC-1065 and the duocarmycins” (priority 2000, dated 2003).
Read-outs that look alike come from different tables or passages of the source.

Key:
MDA-MB-231/ATCC = settings: MDA-NB-231/ATCC, 48 hour exposure
HOP-62 = experiment: NCI screen, HOP-62 (Non-Small Cell Lung Cancer)
Method: (§1) The compounds of this invention were also tested against the panel of 60 human cancer cell lines at the National Cancer Institute, Bethesda, Md. […] The cytrotoxicity studies were conducted using a 48 hour exposure, and measuring the optical density of sulforhodamide B-derived color.

SK-MEL-2 = experiment: NCI screen, SK-MEL-2 (Melanoma)
Method: as §1

SK-MEL-5 = experiment: NCI screen, SK-MEL-5 (Melanoma)
Method: as §1

CCRF-CEM = experiment: NCI screen, CCRF-CEM (Leukemia)
Method: as §1

NCI-H226 = experiment: NCI screen, NCI-H226 (Non-Small Cell Lung Cancer); assay type: cell-based, human
Method: as §1

SF-268 = experiment: NCI screen, SF-268 (CNS Cancer); settings: SF-268, 48 hour exposure
Method: The compounds of this invention were also tested against the panel of 60 human cancer cell lines at the National Cancer Institute, Bethesda, Md. (44). The cytrotoxicity studies were conducted using a 48 hour exposure, and measuring the optical density of sulforhodamide B-derived color.

MDA-N = experiment: NCI screen, MDA-N (Breast Cancer); settings: MDA-N, 48 hour exposure
Method: as §1

U251 = experiment: NCI screen, U251 (CNS Cancer); settings: U251, 48 hour exposure
Method: as §1

SF-539 = experiment: NCI screen, SF-539 (CNS Cancer)
Method: as §1

OVCAR-3 = experiment: NCI screen, OVCAR-3 (Ovarian Cancer)
Method: as §1

UACC-62 = experiment: NCI screen, UACC-62 (Melanoma)
Method: as §1

TK-10 = experiment: NCI screen, TK-10 (Renal Cancer); settings: TK-10, 48 hour exposure
Method: as §1

HCT-116 = experiment: NCI screen, HCT-116 (Colon Cancer); settings: HCT-116, 48 hour exposure
Method: as §1

786-0 = experiment: NCI screen, 786-0 (Renal Cancer)
Method: as §1

SNB-19 = experiment: NCI screen, SNB-19 (CNS Cancer)
Method: as §1

SR = experiment: NCI screen, SR (Leukemia)
Method: as §1

EKVX = experiment: NCI screen, EKVX (Non-Small Cell Lung Cancer)
Method: as §1

MDA-MB-435 = experiment: NCI screen, MDA-MB-435 (Breast Cancer); assay type: cell-based, human
Method: as §1

NCI-H322M = settings: NCI-H322M; Log10 Concentration −5.3; 48 hour exposure
MCF7 = experiment: NCI screen, MCF7 (Breast Cancer)
Method: as §1

[1] = Log10 Concentration −4.3, 48 hour exposure
[2] = Log10 Concentration −5.3, 48 hour exposure
[3] = Log10 Concentration −6.3, 48 hour exposure
[4] = Log10 Concentration −7.3, 48 hour exposure
[5] = Log10 Concentration −8.3, 48 hour exposure

## COC(=O)c1[nH]c2c(O)cc(NC(=O)c3cc4cc(OC)c(OC)c(OC)c4[nH]3)c(CCCl)c2c1C(=O)OC [Compound 22, Dimethyl 4-(2-chloroethyl)-7-hydroxy-5-(5,6,7-trimethoxyindole-2-carboxamido)indole-2,3-dicarboxylate]
MDA-MB-231/ATCC
  TGI: > 5.00E−05 Molar
MDA-MB-231/ATCC; Log10 Concentration −4.3
  Percent Growth: 10%
MDA-MB-231/ATCC; Log10 Concentration −5.3
  Percent Growth: 12%
MDA-MB-231/ATCC; Log10 Concentration −6.3
  Percent Growth: 16%
MDA-MB-231/ATCC; Log10 Concentration −7.3
  Percent Growth: 89%
MDA-MB-231/ATCC; Log10 Concentration −8.3
  Percent Growth: 99%
HOP-62; 48 hour exposure
  TGI: 2.51E−07 Molar
HOP-62; [1]
  Percent Growth: −88%
HOP-62; [2]
  Percent Growth: −39%
HOP-62; [3]
  Percent Growth: −34%
HOP-62; [4]
  Percent Growth: 80%
HOP-62; [5]
  Percent Growth: 92%
SK-MEL-2; 48 hour exposure
  TGI: 1.69E−07 Molar
SK-MEL-2; [1]
  Percent Growth: −87%
SK-MEL-2; [2]
  Percent Growth: −74%
SK-MEL-2; [3]
  Percent Growth: −78%
SK-MEL-2; [4]
  Percent Growth: 87%
SK-MEL-2; [5]
  Percent Growth: 89%
SK-MEL-5; [1]
  Percent Growth: −19%
SK-MEL-5; [2]
  Percent Growth: 9%
SK-MEL-5; [3]
  Percent Growth: −2%
SK-MEL-5; [4]
  Percent Growth: 42%
SK-MEL-5; [5]
  Percent Growth: 86%
CCRF-CEM; 48 hour exposure
  TGI: >5.00E−05 Molar
CCRF-CEM; [1]
  Percent Growth: 17%
CCRF-CEM; [2]
  Percent Growth: 18%
CCRF-CEM; [3]
  Percent Growth: 19%
CCRF-CEM; [4]
  Percent Growth: 43%
CCRF-CEM; [5]
  Percent Growth: 77%
NCI-H226; 48 hour exposure
  TGI: 2.21E−07 Molar
NCI-H226; [1]
  Percent Growth: −76%
NCI-H226; [2]
  Percent Growth: −55%
NCI-H226; [3]
  Percent Growth: −38%
NCI-H226; [4]
  Percent Growth: 69%
NCI-H226; [5]
  Percent Growth: 104%
SF-268
  TGI: 8.40E−08 Molar
SF-268; Log10 Concentration −4.3
  Percent Growth: −58%
SF-268; Log10 Concentration −5.3
  Percent Growth: −63%
SF-268; Log10 Concentration −6.3
  Percent Growth: −42%
SF-268; Log10 Concentration −7.3
  Percent Growth: 12%
SF-268; Log10 Concentration −8.3
  Percent Growth: 80%
MDA-N; Log10 Concentration −4.3
  Percent Growth: 8%
MDA-N; Log10 Concentration −5.3
  Percent Growth: −3%
MDA-N; Log10 Concentration −6.3
  Percent Growth: 5%
MDA-N; Log10 Concentration −7.3
  Percent Growth: 91%
MDA-N; Log10 Concentration −8.3
  Percent Growth: 90%
HOP-92; 48 hour exposure
  TGI: 2.57E−06 Molar
HOP-92; [1]
  Percent Growth: −38%
HOP-92; [2]
  Percent Growth: −5%
HOP-92; [3]
  Percent Growth: 12%
HOP-92; [4]
  Percent Growth: 97%
HOP-92; [5]
  Percent Growth: 101%
U251
  TGI: 8.44E−06 Molar
U251; Log10 Concentration −4.3
  Percent Growth: −40%
U251; Log10 Concentration −5.3
  Percent Growth: 12%
U251; Log10 Concentration −6.3
  Percent Growth: 11%
U251; Log10 Concentration −7.3
  Percent Growth: 74%
U251; Log10 Concentration −8.3
  Percent Growth: 89%
HCT-15
  TGI: 4.00E−06 Molar
SF-539; 48 hour exposure
  TGI: 2.07E−07 Molar
SF-539; [1]
  Percent Growth: −90%
SF-539; [2]
  Percent Growth: −84%
SF-539; [3]
  Percent Growth: −47%
SF-539; [4]
  Percent Growth: 75%
SF-539; [5]
  Percent Growth: 89%
OVCAR-3; 48 hour exposure
  TGI: 6.80E−06 Molar
OVCAR-3; [1]
  Percent Growth: −82%
OVCAR-3; [2]
  Percent Growth: 13%
OVCAR-3; [3]
  Percent Growth: 4%
OVCAR-3; [4]
  Percent Growth: 87%
OVCAR-3; [5]
  Percent Growth: 97%
UACC-62; 48 hour exposure
  TGI: 1.85E−07 Molar
UACC-62; [1]
  Percent Growth: −89%
UACC-62; [2]
  Percent Growth: −78%
UACC-62; [3]
  Percent Growth: −58%
UACC-62; [4]
  Percent Growth: 76%
UACC-62; [5]
  Percent Growth: 90%
TK-10
  TGI: >5.00E−05 Molar
TK-10; Log10 Concentration −4.3
  Percent Growth: 8%
TK-10; Log10 Concentration −5.3
  Percent Growth: 22%
TK-10; Log10 Concentration −6.3
  Percent Growth: 31%
TK-10; Log10 Concentration −7.3
  Percent Growth: 102%
TK-10; Log10 Concentration −8.3
  Percent Growth: 100%
HCT-116
  TGI: 1.95E−07 Molar
HCT-116; Log10 Concentration −4.3
  Percent Growth: −59%
HCT-116; Log10 Concentration −5.3
  Percent Growth: −9%
HCT-116; Log10 Concentration −6.3
  Percent Growth: −43%
HCT-116; Log10 Concentration −7.3
  Percent Growth: 62%
HCT-116; Log10 Concentration −8.3
  Percent Growth: 88%
786-0; 48 hour exposure
  TGI: 4.92E−07 Molar
786-0; [1]
  Percent Growth: −50%
786-0; [2]
  Percent Growth: −26%
786-0; [3]
  Percent Growth: −1%
786-0; [4]
  Percent Growth: 82%
786-0; [5]
  Percent Growth: 94%
SNB-19; 48 hour exposure
  TGI: 1.64E−05 Molar
SNB-19; [1]
  Percent Growth: −7%
SNB-19; [2]
  Percent Growth: 7%
SNB-19; [3]
  Percent Growth: 21%
SNB-19; [4]
  Percent Growth: 83%
SNB-19; [5]
  Percent Growth: 89%
SR; 48 hour exposure
  TGI: >5.00E−05 Molar
SR; Homo sapiens, 48 h, read-out: LC50
  CC50: > 50 µM
SR; [1]
  Percent Growth: 20%
SR; [2]
  Percent Growth: 27%
SR; [3]
  Percent Growth: 21%
SR; [4]
  Percent Growth: 28%
SR; [5]
  Percent Growth: 51%
EKVX; 48 hour exposure
  TGI: 5.14E−07 Molar
EKVX; [1]
  Percent Growth: −83%
EKVX; [2]
  Percent Growth: −62%
EKVX; [3]
  Percent Growth: 1%
EKVX; [4]
  Percent Growth: 102%
EKVX; [5]
  Percent Growth: 102%
MDA-MB-435; 48 hour exposure
  TGI: 3.95E−07 Molar
MDA-MB-435; [1]
  Percent Growth: −32%
MDA-MB-435; [2]
  Percent Growth: −28%
MDA-MB-435; [3]
  Percent Growth: −11%
MDA-MB-435; [4]
  Percent Growth: 97%
MDA-MB-435; [5]
  Percent Growth: 96%
NCI-H322M
  Percent Growth: −8%
MCF7; 48 hour exposure
  TGI: 6.31E−06 Molar
MCF7; [1]
  Percent Growth: −51%
MCF7; [2]
  Percent Growth: 6%
MCF7; [3]
  Percent Growth: 6%
MCF7; [4]
  Percent Growth: 39%
MCF7; [5]
  Percent Growth: 70%
